Test results taken from patent US6800481B1, “Stable macroscopic membranes formed by self-assembly of amphiphilic peptides and uses therefor” (priority 1992, dated 2004).
Several values for one entry are separate records, joined by “and”; a condition that tells them apart may be missing. Equal values may be shown once. Entries after “also recorded” stand apart in the source; their conditions may differ. Residues, ends and D or L forms follow the SMILES beside them.

Key:
physchem = assay type: physicochemical
Procedure: EAK16 peptide stock solutions were prepared at a concentration of approximately 0.57 mM (1 mg/ml) in water. The molecular weight of EAK16 is 1,760. […] The concentration was determined by the ninhydrin methods using internal controls.

[1] = assay type: physicochemical
Procedure: Once formed, the macroscopic membranes are stable in a variety of aqueous solutions, including water, phosphate-buffered saline (PBS), tissue culture medium, serum, and also in ethanol, and can be transferred to and stored in any of these liquids. […] The membranes can be transferred from one solution to another using a solid support such as a spatula. They can be broken by cutting, tearing or shearing.
The stability of the membranes was also tested under a range of temperature, pH and chemical conditions. For these experiments, membranes were formed by adding 20 μl of a 0.5 mM stock solution of EAK16 to 0.5 ml of PBS, and transferred into water or other solutions at test conditions.
The membranes could be frozen and thawed, although care was required in handling the frozen membranes which were brittle. In boiling water, the membranes tended to be sheared by the mechanical agitation. […] (FIGS. 9A and 9B). […] Such strong thermal stability of the defined β-sheet structure of EAK16 is unusual for a small peptide. For example, these findings contrast with the α-helix-forming sixteen residue (Ala, Glu, Lys)-containing peptides studied previously (Marqusee and Baldwin, 1987).
The EAK16 membranes were also tested in water at pH 1.5, 3, 7 and 11 at room temperature for at least a week and at 95° C. for about 4 hours. The membranes were unaffected at these pH. […] It is possible that the complementary interactions between the Glu and Lys side-chains are strong even when the carboxyl groups of the Glu residues have been protonated at pH 1.5 and 3, due to their ability to form hydrogen bonds even when protonated.
The EAK16 membranes were further tested for resistance to chemical denaturation under the following conditions: 1% and 10% sodium dodecyl sulfate (SDS); 1, 2, 3, 4, 5, 6 and 7 M guanidine-HCl; and 1, 2, 3, 4, 5, 6, 7 and 8 M urea. […] The membranes were also tested at 95° C. for 4 hours in 10% SDS; 7 M guanidine-HCl; and at 8 M urea.

3T3 = assay: Cell attachment to biopolymer sheets, normal or Ca++ and Mg++ free medium (Table 6); assay type: cell-based, mouse; set-up: key: ++++: strong attachment; +++: moderate attachment; ++: weak attachment; +/−: little or no attachment
Procedure: (§1) Cells were pretreated in serum-free medium containing 30 μg/ml cyclohexamide for 2 hours before introduction to the peptide membranes. The cells used for the calcium and magnesium-free condition were pre-equilibrated in Ca^++ and Mg^++ free medium containing 5 mM EDTA for 15 minutes before introduction to the peptide membranes. Cells were allowed to attach to the peptide membranes for 30 minutes, 1 and 8 hours at 37° C. The attached cells were shaken for […] on a rotary rocker at 60 r.p.m., then scored under phase contrast microscopy.

PC12NGF = assay: as above; assay type: cell-based, rat; set-up: key: ++++: strong attachment; +++: moderate attachment; ++: weak attachment; +/−: little or no attachment
Procedure: as §1

PC12 = assay: as above; assay type: cell-based, rat; set-up: key: ++++: strong attachment; +++: moderate attachment; ++: weak attachment; +/−: little or no attachment
Procedure: as §1

PC12 cells = assay: In vitro neurite outgrowth on peptide membranes; assay type: cell-based, rat
Procedure: The suitability of these materials for supporting in vitro neurite outgrowth was tested by treating biomaterial-attached PC12 cells with nerve growth factor (NGF). This treatment induces PC12 cells to differentiate into sympathetic neurons which can send out long processes called neurites. There was a marked difference in the neurite promoting properties of the two materials tested (EAK16 and RAD16).
Nerve growth factor differentiated PC12 cells have been used extensively in studies of neurite outgrowth. PC12 cells upregulate the number of calcium-dependent and -independent cell adhesion receptors in response to nerve growth factor. Cell attachment and neurite outgrowth from nerve growth factor differentiated PC12 cells was examined on membranes of RAD16 and EAK16 in order to determine whether membranes containing RGD-like sequences would preferentially support these cell activities. Neurite outgrowth on peptide membranes is of interest for potential applications of nerve repair.
Untreated PC12 cells were introduced to peptide membranes of EAK16 and RAD16 suspended in 85% RMMP1, 10% heat inactivated horse serum, 5 fetal bovine serum. Half of the cells were treated with nerve growth factor (50 ng/ml, NGF) and were supplemented with NGF every 3-4 days for 14 days. […] The neurite outgrowth reached greater than 400 μm in length, approximately 15-20 times the cell body, following the contour of the matrices in a three dimensional network.

[2] = system: NGF differentiated PC12 cells, retonic acid-differentiated human neuroblastoma and mouse cerebellum granule cells; assay: Neurite outgrowth on biopolymers, several neuronal cell types; assay type: cell-based
From the text: The invention further relates to the regeneration of nerves with filaments of the membranes of the present invention. Nerve regeneration can be promoted and directed by transplanting filaments of RAD16 along the correct path to their targets. This would be extremely useful for patients with severed peripheral nerves. Such a technology could be refined to help people with spinal cord injuries.

[3] = Nucleotide hydrolysis activity; assay type: biochemical
From the text: In addition, the ability of small peptides such as EAK16 to self-assemble into membranes may be useful in origin of life studies related to cell membranes and cellular compartmentalization. […] This activity is probably due to the ability of lysine and glutamic acid side-chains to perform general acid and base catalysis.

solubility (physchem; maximal solubility in water): 3000 µM and ~5000 µg/mL
solubility (physchem; solubility in 23% actonitrile): ≤ 6000 µM and ~10000 µg/mL
resistance of membranes to chemical denaturation at room temperature ([1]; 1% and 10% SDS, 1-7 M guanidine-HCl, 1-8 M urea, room temperature at least 4 days): remained stable
membranes in 8 M urea at 95° C. ([1]; 95° C. for 4 hours, 8 M urea): dissolved
membranes in SDS and 7 M guanidine-HCl at 95° C. ([1]; 95° C. for 4 hours, 10% SDS, 7 M guanidine-HCl): remained intact
pH at which membranes and filaments are stable ([1]; alkaline and acidic pH): 1.5-11
SMILES: CC(=O)N[C@@H](C)C(=O)N[C@@H](CCC(=O)O)C(=O)N[C@@H](C)C(=O)N[C@@H](CCC(=O)O)C(=O)N[C@@H](C)C(=O)N[C@@H](CCCCN)C(=O)N[C@@H](C)C(=O)N[C@@H](CCCCN)C(=O)N[C@@H](C)C(=O)N[C@@H](CCC(=O)O)C(=O)N[C@@H](C)C(=O)N[C@@H](CCC(=O)O)C(=O)N[C@@H](C)C(=O)N[C@@H](CCCCN)C(=O)N[C@@H](C)C(=O)N[C@@H](CCCCN)C(N)=O [EAK16] (Ac-AEAEAKAKAEAEAKAK-NH2)
stability of membranes and filaments in liquids [1]: stable in aqueous solution, in serum, and in ethanol
stability of membranes in water or PBS [1]: stable in water or PBS for at least a week
stability of membranes in water over temperature [1]: stable in water over a wide range of temperatures: up to 95° and at 4°, −20°, and −80 °C
cell attachment (3T3; 3T3, 30 min, Ca^++ & Mg^++ free, EDTA serum-free + Cyclohex): ++++
cell attachment (3T3; 3T3, 30 min, Normal Ca^++ & Mg^++ serum-free + Cyclohex): ++++
cell attachment (3T3; 3T3, 60 min, Ca^++ & Mg^++ free, EDTA serum-free + Cyclohex): ++++
cell attachment (3T3; 3T3, 60 min, Normal Ca^++ & Mg^++ serum-free + Cyclohex): ++++
cell attachment (PC12NGF; 30 min, Ca^++ & Mg^++ free, EDTA serum-free + Cyclohex): ++++
cell attachment (PC12NGF; 30 min, Normal Ca^++ & Mg^++ serum-free + Cyclohex): ++++
cell attachment (PC12NGF; 60 min, Ca^++ & Mg^++ free, EDTA serum-free + Cyclohex): ++++
cell attachment (PC12NGF; 60 min, Normal Ca^++ & Mg^++ serum-free + Cyclohex): ++++
cell attachment (PC12; PC12, 30 min, Ca^++ & Mg^++ free, EDTA serum-free + Cyclohex): ++++
cell attachment (PC12; PC12, 30 min, Normal Ca^++ & Mg^++ serum-free + Cyclohex): ++++
cell attachment (PC12; PC12, 60 min, Ca^++ & Mg^++ free, EDTA serum-free + Cyclohex): ++++
cell attachment (PC12; PC12, 60 min, Normal Ca^++ & Mg^++ serum-free + Cyclohex): ++++
neurite outgrowth of NGF-treated PC12 cells, in words (PC12 cells; NGF-treated PC12 cells on membranes): little neurite processes; also recorded: little neurite outgrowth
Neurite outgrowth, untreated, 14 days (PC12 cells; PC12 cells without NGF, 14 days): − (no neurite outgrowth)
neurite outgrowth on biopolymers [2]: not on EAK16-based biopolymers
nucleotide hydrolysis activity [3]: partial nucleotide hydrolysis activity
